Experimental data: US20230143604A1, “QW DOSING OF GIP RECEPTOR AGONIST PEPTIDE COMPOUNDS AND USES THEREOF” (TAKEDA PHARMACEUTICAL COMPANY LIMITED, priority 2020, published 2023)
Starred links: 1 amine or outer side, 2 acyl side, 3 side chain; linkers in the order of their positions; H or OH if unused. Non-standard residues stand in square brackets, D forms with d. Residues, ends and D or L forms follow the SMILES beside them. Groups on a side chain read outwards from the residue. *: point of attachment. C18 diacid = O=C(O)CCCCCCCCCCCCCCCCC(=O)*; γGlu = O=C(O)[C@H](CCC(=O)[*:2])N[*:1]; NMeY = CN[C@@H](Cc1ccc(O)cc1)C(=O)O; AEEA = NCCOCCOCC(=O)O; Aib = CC(C)(N)C(=O)O

Assay: physchem
Outline: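 Solubility at pH 7.4 determined by stepwise addition of 200 mM phosphate buffer in 100 μL increments to 3 mg peptide, mixing briefly each time, until no insoluble material remained, then measured by liquid chromatography.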

SMILES: CC[C@H](C)[C@H](NC(=O)[C@H](CCCCN)NC(=O)[C@H](CC(=O)O)NC(=O)[C@H](CC(C)C)NC(=O)C(C)(C)NC(=O)[C@@H](NC(=O)[C@H](CO)NC(=O)[C@H](Cc1ccc(O)cc1)NC(=O)[C@H](CC(=O)O)NC(=O)[C@H](CO)NC(=O)[C@@H](NC(=O)[C@H](Cc1ccccc1)NC(=O)[C@@H](NC(=O)CNC(=O)[C@H](CCC(=O)O)NC(=O)C(C)(C)NC(=O)[C@@H](N)Cc1ccc(O)cc1)[C@@H](C)O)[C@@H](C)CC)[C@@H](C)CC)C(=O)N[C@@H](CCCCNC(=O)COCCOCCNC(=O)COCCOCCNC(=O)CC[C@H](NC(=O)CCCCCCCCCCCCCCCCC(=O)O)C(=O)O)C(=O)N[C@@H](CCC(N)=O)C(=O)N[C@@H](C)C(=O)N[C@@H](CC(=O)O)C(=O)N[C@@H](Cc1ccccc1)C(=O)N[C@H](C(=O)N[C@@H](CC(N)=O)C(=O)N[C@@H](Cc1c[nH]c2ccccc12)C(=O)N[C@@H](CC(C)C)C(=O)N[C@@H](CC(C)C)C(=O)N[C@@H](C)C(=O)N[C@@H](CCC(N)=O)C(=O)N[C@@H](CCCNC(=N)N)C(=O)NCC(=O)O)C(C)C [Compound 172] (H-Y[Aib]EGTFISDYSI[Aib]LDKIK([AEEA-AEEA-γGlu-C18 diacid])QADFVNWLLAQRG-OH)
- solubility (pH 7.4): ≥ 15 mg/mL
- solubility (pH 7.4, aqueous buffer): ≥ 30 mg/mL

SMILES: CC[C@H](C)[C@H](NC(=O)[C@H](CCCCN)NC(=O)[C@H](CC(=O)O)NC(=O)[C@H](CC(C)C)NC(=O)[C@H](C)NC(=O)[C@@H](NC(=O)[C@H](CO)NC(=O)[C@H](Cc1ccc(O)cc1)NC(=O)[C@H](CC(=O)O)NC(=O)[C@H](CO)NC(=O)[C@@H](NC(=O)[C@H](Cc1ccccc1)NC(=O)[C@@H](NC(=O)CNC(=O)[C@H](CCC(=O)O)NC(=O)C(C)(C)NC(=O)[C@H](Cc1ccc(O)cc1)NC)[C@@H](C)O)[C@@H](C)CC)[C@@H](C)CC)C(=O)N[C@@H](C)C(=O)N[C@@H](CCC(N)=O)C(=O)NC(C)(C)C(=O)N[C@@H](CCCCNC(=O)COCCOCCNC(=O)COCCOCCNC(=O)CC[C@H](NC(=O)CC[C@H](NC(=O)CCCCCCCCCCCCCCCCC(=O)O)C(=O)O)C(=O)O)C(=O)N[C@@H](Cc1ccccc1)C(=O)N[C@H](C(=O)N[C@@H](CCC(=O)O)C(=O)N[C@@H](Cc1c[nH]c2ccccc12)C(=O)N[C@@H](CC(C)C)C(=O)N[C@@H](CC(C)C)C(=O)N[C@@H](C)C(=O)N[C@@H](CCC(N)=O)C(=O)N[C@@H](CCCNC(=N)N)C(=O)NCC(=O)O)C(C)C [Compound 173] (H-[NMeY][Aib]EGTFISDYSIALDKIAQ[Aib]K([AEEA-AEEA-γGlu-γGlu-C18 diacid])FVEWLLAQRG-OH)
- solubility (pH 7.4): ≥ 15 mg/mL
- solubility (pH 7.4, aqueous buffer): ≥ 30 mg/mL

SMILES: CC[C@H](C)[C@H](NC(=O)[C@H](CO)NC(=O)[C@H](Cc1ccc(O)cc1)NC(=O)[C@H](CC(=O)O)NC(=O)[C@H](CO)NC(=O)[C@@H](NC(=O)[C@H](Cc1ccccc1)NC(=O)[C@@H](NC(=O)CNC(=O)[C@H](CCC(=O)O)NC(=O)C(C)(C)NC(=O)[C@H](Cc1ccc(O)cc1)NC)[C@@H](C)O)[C@@H](C)CC)C(=O)N[C@@H](C)C(=O)N[C@@H](CC(C)C)C(=O)N[C@@H](CC(=O)O)C(=O)N[C@@H](CCCCN)C(=O)N[C@@H](C)C(=O)N[C@@H](C)C(=O)N[C@@H](CCC(N)=O)C(=O)NC(C)(C)C(=O)N[C@@H](CCCCNC(=O)COCCOCCNC(=O)COCCOCCNC(=O)CC[C@H](NC(=O)CC[C@H](NC(=O)CCCCCCCCCCCCCCCCC(=O)O)C(=O)O)C(=O)O)C(=O)N[C@@H](Cc1ccccc1)C(=O)N[C@H](C(=O)N[C@@H](CCC(=O)O)C(=O)N[C@@H](Cc1c[nH]c2ccccc12)C(=O)N[C@@H](CC(C)C)C(=O)N[C@@H](CC(C)C)C(=O)N[C@@H](C)C(=O)N[C@@H](CCC(N)=O)C(=O)N[C@@H](CCCNC(=N)N)C(=O)NCC(=O)O)C(C)C [Compound 174] (H-[NMeY][Aib]EGTFISDYSIALDKAAQ[Aib]K([AEEA-AEEA-γGlu-γGlu-C18 diacid])FVEWLLAQRG-OH)
- solubility (pH 7.4): ≥ 15 mg/mL
- solubility (pH 7.4, aqueous buffer): ≥ 30 mg/mL

SMILES: CC[C@H](C)[C@H](NC(=O)[C@H](CCCCN)NC(=O)[C@H](CC(=O)O)NC(=O)[C@H](CC(C)C)NC(=O)[C@H](C)NC(=O)[C@@H](NC(=O)[C@H](CO)NC(=O)[C@H](Cc1ccc(O)cc1)NC(=O)[C@H](CC(=O)O)NC(=O)[C@H](CO)NC(=O)[C@@H](NC(=O)[C@H](Cc1ccccc1)NC(=O)[C@@H](NC(=O)CNC(=O)[C@H](CCC(=O)O)NC(=O)C(C)(C)NC(=O)[C@H](Cc1ccc(O)cc1)NC)[C@@H](C)O)[C@@H](C)CC)[C@@H](C)CC)C(=O)N[C@@H](C)C(=O)N[C@@H](CCC(N)=O)C(=O)NC(C)(C)C(=O)N[C@@H](CCCCNC(=O)COCCOCCNC(=O)COCCOCCNC(=O)CC[C@H](NC(=O)CC[C@H](NC(=O)CCCCCCCCCCCCCCCCC(=O)O)C(=O)O)C(=O)O)C(=O)N[C@@H](Cc1ccccc1)C(=O)N[C@H](C(=O)N[C@@H](CC(N)=O)C(=O)N[C@@H](Cc1c[nH]c2ccccc12)C(=O)N[C@@H](CC(C)C)C(=O)N[C@@H](CC(C)C)C(=O)N[C@@H](C)C(=O)N[C@@H](CCC(N)=O)C(=O)N[C@@H](CCCNC(=N)N)C(=O)NCC(=O)O)C(C)C [Compound 175] (H-[NMeY][Aib]EGTFISDYSIALDKIAQ[Aib]K([AEEA-AEEA-γGlu-γGlu-C18 diacid])FVNWLLAQRG-OH)
- solubility (pH 7.4): ≥ 15 mg/mL
- solubility (pH 7.4, aqueous buffer): ≥ 30 mg/mL

SMILES: CC[C@H](C)[C@H](NC(=O)[C@H](CO)NC(=O)[C@H](Cc1ccc(O)cc1)NC(=O)[C@H](CC(=O)O)NC(=O)[C@H](CO)NC(=O)[C@@H](NC(=O)[C@H](Cc1ccccc1)NC(=O)[C@@H](NC(=O)CNC(=O)[C@H](CCC(=O)O)NC(=O)C(C)(C)NC(=O)[C@H](Cc1ccc(O)cc1)NC)[C@@H](C)O)[C@@H](C)CC)C(=O)N[C@@H](C)C(=O)N[C@@H](CC(C)C)C(=O)N[C@@H](CC(=O)O)C(=O)N[C@@H](CCCCN)C(=O)N[C@@H](C)C(=O)N[C@@H](C)C(=O)N[C@@H](CCC(N)=O)C(=O)NC(C)(C)C(=O)N[C@@H](CCCCNC(=O)COCCOCCNC(=O)COCCOCCNC(=O)CC[C@H](NC(=O)CC[C@H](NC(=O)CCCCCCCCCCCCCCCCC(=O)O)C(=O)O)C(=O)O)C(=O)N[C@@H](Cc1ccccc1)C(=O)N[C@H](C(=O)N[C@@H](CC(N)=O)C(=O)N[C@@H](Cc1c[nH]c2ccccc12)C(=O)N[C@@H](CC(C)C)C(=O)N[C@@H](CC(C)C)C(=O)N[C@@H](C)C(=O)N[C@@H](CCC(N)=O)C(=O)N[C@@H](CCCNC(=N)N)C(=O)NCC(=O)O)C(C)C [Compound 176] (H-[NMeY][Aib]EGTFISDYSIALDKAAQ[Aib]K([AEEA-AEEA-γGlu-γGlu-C18 diacid])FVNWLLAQRG-OH)
- solubility (pH 7.4): ≥ 15 mg/mL
- solubility (pH 7.4, aqueous buffer): ≥ 30 mg/mL

SMILES: CC[C@H](C)[C@H](NC(=O)[C@H](CCCNC(=N)N)NC(=O)[C@H](CC(=O)O)NC(=O)[C@H](CC(C)C)NC(=O)[C@H](C)NC(=O)[C@@H](NC(=O)[C@H](CO)NC(=O)[C@H](Cc1ccc(O)cc1)NC(=O)[C@H](CC(=O)O)NC(=O)[C@H](CO)NC(=O)[C@@H](NC(=O)[C@H](Cc1ccccc1)NC(=O)[C@@H](NC(=O)CNC(=O)[C@H](CCC(=O)O)NC(=O)C(C)(C)NC(=O)[C@H](Cc1ccc(O)cc1)NC)[C@@H](C)O)[C@@H](C)CC)[C@@H](C)CC)C(=O)N[C@@H](C)C(=O)N[C@@H](CCC(N)=O)C(=O)N[C@@H](CCC(N)=O)C(=O)N[C@@H](CCCCNC(=O)COCCOCCNC(=O)COCCOCCNC(=O)CC[C@H](NC(=O)CC[C@H](NC(=O)CCCCCCCCCCCCCCCCC(=O)O)C(=O)O)C(=O)O)C(=O)N[C@@H](Cc1ccccc1)C(=O)N[C@H](C(=O)N[C@@H](CC(N)=O)C(=O)N[C@@H](Cc1c[nH]c2ccccc12)C(=O)N[C@@H](CC(C)C)C(=O)N[C@@H](CC(C)C)C(=O)N[C@@H](C)C(=O)N[C@@H](CCC(N)=O)C(=O)N[C@@H](CO)C(=O)N1CCC[C@H]1C(=O)N[C@@H](CO)C(=O)N[C@@H](CO)C(=O)NCC(=O)N[C@@H](C)C(=O)N1CCC[C@H]1C(=O)N1CCC[C@H]1C(=O)N1CCC[C@H]1C(=O)N[C@@H](CO)C(=O)O)C(C)C [Compound 177] (H-[NMeY][Aib]EGTFISDYSIALDRIAQQK([AEEA-AEEA-γGlu-γGlu-C18 diacid])FVNWLLAQSPSSGAPPPS-OH)
- solubility (pH 7.4, aqueous buffer, pH 7.4 Phosphate Buffer - Solubility, 200 mM Phosphate buffer pH 7.4): ≥ 30 mg/mL
- solubility (pH 7.4, solubility in phosphate buffer at pH 7.4, 200 mM phosphate buffer pH 7.4): ≥ 15 mg/mL

SMILES: CC[C@H](C)[C@H](NC(=O)[C@H](CO)NC(=O)[C@H](Cc1ccc(O)cc1)NC(=O)[C@H](CC(=O)O)NC(=O)[C@H](CO)NC(=O)[C@@H](NC(=O)[C@H](Cc1ccccc1)NC(=O)[C@@H](NC(=O)CNC(=O)[C@H](CCC(=O)O)NC(=O)C(C)(C)NC(=O)[C@H](Cc1ccc(O)cc1)NC)[C@@H](C)O)[C@@H](C)CC)C(=O)N[C@@H](C)C(=O)N[C@@H](CC(C)C)C(=O)N[C@@H](CC(=O)O)C(=O)N[C@@H](CCCNC(=N)N)C(=O)N[C@@H](C)C(=O)N[C@@H](C)C(=O)N[C@@H](CCC(N)=O)C(=O)N[C@@H](CCC(N)=O)C(=O)N[C@@H](CCCCNC(=O)COCCOCCNC(=O)COCCOCCNC(=O)CC[C@H](NC(=O)CC[C@H](NC(=O)CCCCCCCCCCCCCCCCC(=O)O)C(=O)O)C(=O)O)C(=O)N[C@@H](Cc1ccccc1)C(=O)N[C@H](C(=O)N[C@@H](CC(N)=O)C(=O)N[C@@H](Cc1c[nH]c2ccccc12)C(=O)N[C@@H](CC(C)C)C(=O)N[C@@H](CC(C)C)C(=O)N[C@@H](C)C(=O)N[C@@H](CCC(N)=O)C(=O)N[C@@H](CO)C(=O)N1CCC[C@H]1C(=O)NCC(=O)O)C(C)C [Compound 178] (H-[NMeY][Aib]EGTFISDYSIALDRAAQQK([AEEA-AEEA-γGlu-γGlu-C18 diacid])FVNWLLAQSPG-OH)
- solubility (pH 7.4): ≥ 15 mg/mL
- solubility (pH 7.4, aqueous buffer): ≥ 30 mg/mL

SMILES: CC[C@H](C)[C@H](NC(=O)[C@H](CCCNC(=N)N)NC(=O)[C@H](CC(=O)O)NC(=O)[C@H](CCCCNC(=O)CNC(=O)CNC(=O)CNC(=O)CNC(=O)CNC(=O)CCCCCCCCCCCCCCCCC(=O)O)NC(=O)[C@H](C)NC(=O)[C@@H](NC(=O)[C@H](CO)NC(=O)[C@H](Cc1ccc(O)cc1)NC(=O)[C@H](CC(=O)O)NC(=O)[C@H](CO)NC(=O)[C@@H](NC(=O)[C@H](Cc1ccccc1)NC(=O)[C@@H](NC(=O)CNC(=O)[C@H](CCC(=O)O)NC(=O)C(C)(C)NC(=O)[C@H](Cc1ccc(O)cc1)NC)[C@@H](C)O)[C@@H](C)CC)[C@@H](C)CC)C(=O)N[C@@H](C)C(=O)N[C@@H](CCC(N)=O)C(=O)N[C@@H](CCCNC(=N)N)C(=O)N[C@@H](CC(N)=O)C(=O)N[C@@H](Cc1ccccc1)C(=O)N[C@H](C(=O)N[C@@H](CCC(=O)O)C(=O)N[C@@H](Cc1c[nH]c2ccccc12)C(=O)N[C@@H](CC(C)C)C(=O)N[C@@H](CC(C)C)C(=O)N[C@@H](C)C(=O)N[C@@H](CCC(N)=O)C(=O)N[C@@H](CO)C(=O)N1CCC[C@H]1C(=O)NCC(=O)O)C(C)C [Compound 180]
- solubility (pH 7.4): ≥ 15 mg/mL
